Molecules are shown by their SMILES. Where only a bound is given, the exact number is not on record here.

The results in this text go back to publication PMC8588467, “Rational Design 2-Hydroxypropylphosphonium Salts as Cancer Cell Mitochondria-Targeted Vectors: Synthesis, Structure, and Biological Properties” (Molecules, 2021).

Series [1] has as its system HuTu 80 (human duodenal adenocarcinoma). Briefly: MTT cytotoxicity, HuTu 80. In kind it is cell-based.
Series [2] concerns M-HeLa (human cervix epitheloid carcinoma). Briefly: MTT cytotoxicity, M-HeLa. The format is cell-based.
The subject of series [3] is MCF-7 (human breast adenocarcinoma). Briefly: MTT cytotoxicity, MCF-7. The format is cell-based.
Series [4] relates to A549 (human lung carcinoma). Briefly: MTT cytotoxicity, A549. In kind it is cell-based.
The test system of series [5] is T98G glioblastoma cell line. Nature of the series: MTT cytotoxicity, T98G. The format is cell-based, human.
Series [6] relates to WI38 (diploid human embryo lung). Nature of the series: MTT cytotoxicity, normal cells WI38. The format is cell-based. Conditions: MTT; mean ± SD, triplicate; read-out: WI38 IC50 (normal cell line).
Series [7] relates to HuTu-80 cells. Nature of the series: Induction of apoptosis, annexin V/propidium iodide flow cytometry. In kind it is cell-based, human. Conditions: IC50/2, 48-h incubation. Here is the method: Apoptosis is one of the most significant mechanisms used for screening new anti-cancer agents. The apoptosis-inducing effect was carried out on lead compounds 3a, b, k, j and 4c showing high selectivity against HuTu-80 cells. The studies were carried out by flow cytometry at concentrations IC50/2 and IC50 (Figure 4). […] The percentage of apoptotic cells in early and late phases was slightly changed with increase compound concentration up to IC50.
HuTu 80 cells at 1 × 10^6 cells/well in a final volume of 2 mL were seeded into six-well plates. After 48 h of incubation, various concentrations of compounds 3a,b and 3k were added to wells.
The cells were harvested at 2000 rpm for 5 min and, then, washed twice with ice-cold PBS, followed by resuspension in binding buffer. Next, the samples were incubated with 5 μL of annexin V-Alexa Fluor 647 (Sigma–Aldrich, St. Louis, MO, USA) and 5 μL of propidium iodide for 15 min at room temperature in the dark. Finally, the cells were analyzed by flow cytometry (Guava easy Cyte, MERCK, Rahway, NJ, USA) within 1 h. The experiments were repeated three times.
On the technique in general: In flow cytometry, cells or beads pass a laser one at a time.

The subject of series [8] is HuTu-80 cells. Nature of the series: Mitochondrial membrane potential, JC-10 flow cytometry. The format is cell-based, human. Conditions: for % cells with J-aggregate (red, high membrane potential) / % cells with J-monomer (green, decreased membrane potential): JC-10. From the text: Apoptosis induction by 3a, b, k, j and 4c through the mitochondrial pathway and HuTu-80 cell line was studied by flow cytometry using the fluorescent dye JC-10 from the Mitochondria Membrane Potential Kit. JC-10 accumulated in the mitochondrial matrix and formed aggregates (J-aggregate) with red fluorescence in normal cells with a high mitochondrial membrane potential. The membrane potential decreased in apoptotic cells. JC-10 started to diffuse out from the mitochondria and converts to the monomeric form (J-monomer) and emits green fluorescence. This is recorded with a flow cytometer. […] The process became more pronounced with an increase of 3a, b, 3k, j and 4c concentrations up to IC50 (Figure 5 and Figure 6).
Cells were harvested at 2000 rpm for 5 min and then washed twice with ice-cold PBS, followed by resuspension in JC-10 (10 µg/mL) and incubation at 37 °C for 10 min. After the cells were rinsed three times and suspended in PBS, the JC-10 fluorescence was observed by flow cytometry (Guava easy Cyte, MERCK, NJ, USA).

Series [9] deals with HuTu-80 cells. Nature of the series: Intracellular ROS production, CellROX Deep Red flow cytometry. The format is cell-based, human. Conditions: for CellROX Deep Red fluorescence intensity (ROS production): control 600. From the text:
Increasing the production of reactive oxygen species (ROS) by compounds characterizes the mitochondrial apoptotic pathway. Mitochondria are a potential source and target of ROS. ROS lead to disruption of mitochondrial functions and, as a consequence, to irreversible cell damage. In this regard, the effect of test compounds in HuTu-80 cells on ROS production, using flow cytometry analysis and CellROX® Deep Red flow cytometry kit was investigated. Data presented in Figure 7 show a significant increase in CellROX® Deep Red fluorescence intensity. This indicates an increase in ROS production in the presence of the tested compounds.
ROS generation was investigated using flow cytometry assay and CellROX® Deep Red flow cytometry kit. For this HuTu 80 cells were harvested at 2000 rpm for 5 min and then washed twice with ice-cold PBS, followed by resuspension in 0.1 mL of medium without FBS, to which was added 0.2 μL of Cell ROX® Deep Red and incubated at 37 °C for 30 min After three times washing the cells and suspending them in PBS, the production of ROS in the cells was immediately monitored using flow cytometer Guava easy Cyte, MERCK, NJ, USA).

A further series deals with human cancer cell lines. Nature of the series: MTT cytotoxicity, summary statements over several cell lines. In kind it is cell-based. Conditions: Homo sapiens, HuTu80; lines other than HuTu 80 and PC3; read-out: IC50 concentration values against other human cancer lines.
The test system of series [10] is PC3 (human prostate adenocarcinoma). Nature of the series: MTT cytotoxicity, PC3.
A short description of series [11]: In vitro rhodamine B release, dialysis bag diffusion method. Conditions: aqueous solution without nanoparticles; phosphate buffer 0.025 M, pH 7.4, 37 °C. In kind it is physicochemical.
Method: The monitoring of rhodamine B release from liposomes was performed using the dialysis bag diffusion method. Dialysis bags retain liposomes and allow the released rhodamine B to diffuse into the medium. The bags were soaked in Milli-Q water for 12 h before use. Then, 0.4 mL of liposomes were poured into the dialysis bag. The two bag ends were sealed with clamps. The bags were then placed in a vessel containing 100 mL of 0.025 M sodium phosphate buffer pH 7.4, the receiving phase. The vessel was placed in a thermostatic shaker (New Brunswick, NJ, USA) at 37 °C, under a stirring rate of 150 rpm. At predetermined time intervals, 0.5 mL of samples were withdrawn, and their absorbance at 554 nm was measured using Perkin Elmer λ35 (Perkin Elmer Instruments, Norwalk, CT, USA). All samples were analyzed in triplicate. The extinction coefficient of rhodamine B is 106,089 M^−1 cm^−1 at pH = 7.4.
The mark [12] stands for this setting: IC50 normal cells (WI38) / IC50 cancer cells, ns = no selectivity.

As for `C=CCOCC(O)C[P+](c1ccccc1)(c1ccccc1)c1ccccc1.[I-]` (centres unmarked) [4c, (3-(Allyloxy)-2-hydroxypropyl)triphenylphosphonium iodide], the “SI HuTu 80” value in series [1] (setting [12]) turned out to be 12.3. Also, the IC50 stood at 300 ± 20 nM in [1] (MTT, mean ± SD, triplicate); 1100 ± 90 nM in series [2] (MTT, mean ± SD, triplicate); 2700 ± 200 nM in [3] (MTT, mean ± SD, triplicate); 2600 ± 200 nM in [4] (MTT, mean ± SD, triplicate); 2000 ± 100 nM in series [5] (MTT, mean ± SD, triplicate); 3700 ± 300 nM in series [6]. In addition, the IC50 with human cancer cell lines is 1100 to 3700 nM; in series [10] (read-out: IC50 PC3, MTT, mean ± SD, triplicate) it was 700 ± 60 nM. In addition, in series [1] (words), the “anti-cancer activity against the HuTu 80 cell line relative to doxorubicin” value is on record as “comparable to doxorubicin activity”. Moreover, the “SI M-HeLa” value in series [2] (setting [12]) was 3.4. In series [3] (setting [12]), the “SI MCF-7” value is 1.4. The “SI A549” value in [4] (setting [12]) is reported as 1.4. In series [5] (setting [12]), the “SI T98G” value was 1.8. Besides, the “apoptosis induction” value in the series on HuTu-80 cells [7] is given as “actively induce apoptosis”. For the same molecule, the “% cells with J-aggregate (red, high membrane potential)” value is on record as 51.1% in the series with HuTu-80 cells [8] (IC50, 48 h) and 88.5% in the series on HuTu-80 cells [8] (IC50/2, 48 h). In addition, the “% cells with J-monomer (green, decreased membrane potential)” value is reported as 46.9% in the series on HuTu-80 cells [8] (IC50, 48 h) and 11.3% in the series with HuTu-80 cells [8] (IC50/2, 48 h). In the series with HuTu-80 cells [8] (more pronounced with increase of concentration up to IC50), the “effect on mitochondrial membrane potential” value was “decrease the mitochondrial membrane potential”. In addition, the “CellROX Deep Red fluorescence intensity (ROS production)” value with HuTu-80 cells [9] (IC50, 48 h) is on record as 4300; in the series with HuTu-80 cells [9] (IC50/2, 48 h), 3200. In the series with HuTu-80 cells [9] (compared to 3a and 3b and control (untreated cells)), the “ROS generation” value is given as “most active to generate ROS”. Moreover, in series [10] (setting [12]), the “SI PC3” value was 5.3. For the same molecule, in series [10] (words), the “cytotoxic effect against the PC3 line relative to doxorubicin” value is “two times higher than doxorubicin”.

`CCN(CC)c1ccc2c(-c3ccccc3C(=O)O)c3ccc(=[N+](CC)CC)cc-3oc2c1` [Rhodamine B]: the “time of release of 50% Rhodamine B” value in [11] is no more than 20 min.
